# Laboratory results reported in ChEMBL document CHEMBL6078649, “Discovery of Chalcone Derivatives as Bifunctional Molecules with Anti-SARS-CoV-2 and Anti-inflammatory Activities” (J Nat Prod, 2024).
# Tests used:
# [1] = Cytotoxicity against mouse RAW264.7 cells assessed as cell viability at 10 uM incubated for 24 hrs by CCK8 assay relative to control; assay type: toxicity, cell-based; details: read-out: Activity
# [2] = Cytotoxicity against mouse RAW264.7 cells assessed as cell viability at 1 uM incubated for 24 hrs by CCK8 assay relative to control; assay type: toxicity, cell-based; details: read-out: Activity
# [3] = target: Replicase polyprotein 1ab (Severe acute respiratory syndrome coronavirus 2) (UniProt P0DTD1); test: Inhibition of SARS-CoV-2 3CLPro using DabcylKNSTLQSGLRK-Edans as substrate at 50 uM preincubated for 30 mins followed by substrate addition measured after 20 mins by FRET assay relative to control; details: time 50.0 min
# [4] = Cytotoxicity against human Huh-7 cells harboring viral replicon/EGFP/Neo genes assessed as cell viability at 5 uM incubated for 24 hrs by Cell Titer Glo assay relative to control; assay type: toxicity, cell-based; details: read-out: Activity
# RAW264.7 [5] = test: Anti-inflammatory activity against mouse RAW264.7 cells assessed as inhibition of LPS-induced NO production at 10 uM preincubated for 1 hr followed by LPS treatment measured after 24 hrs relative to control; assay type: functional; details: time 25 hrs
# [6] = target: Replicase polyprotein 1ab (Severe acute respiratory syndrome coronavirus 2, UniProt P0DTD1)
# [7] = Cytotoxicity against mouse RAW264.7 cells assessed as cell viability at 50 uM incubated for 24 hrs by CCK8 assay relative to control; assay type: toxicity, cell-based; details: read-out: Activity
# [8] = Cytotoxicity against human Huh-7 cells harboring viral replicon/EGFP/Neo genes assessed as cell viability at 50 uM incubated for 24 hrs by Cell Titer Glo assay relative to control; assay type: toxicity, cell-based; details: read-out: Activity
# [9] = target: Replicase polyprotein 1ab (Severe acute respiratory syndrome coronavirus 2) (UniProt P0DTD1); test: Inhibition of SARS-CoV-2 3CLPro using DabcylKNSTLQSGLRK-Edans as substrate at 5 uM preincubated for 30 mins followed by substrate addition measured after 20 mins by FRET assay relative to control; details: time 50.0 min
# RAW264.7 [10] = test: Anti-inflammatory activity against mouse RAW264.7 cells assessed as inhibition of LPS-induced NO production at 1 uM preincubated for 1 hr followed by LPS treatment measured after 24 hrs relative to control; assay type: functional; details: time 25 hrs
SMILES,"viability at 24 h, 10 µM [1]","viability at 24 h, 1 µM [2]",inhibition [3],"viability at 24 h, 5 µM [4]",inhibition at 10 µM (RAW264.7 [5]),IC50 [6],"viability at 24 h, 50 µM [7]","viability at 24 h, 50 µM [8]",inhibition [9],inhibition at 1 µM (RAW264.7 [10]),EC50 [6]
O=C(/C=C/c1c(Cl)c(O)c(O)c(O)c1Cl)c1ccc(O)cc1,95.6%,122%,1.9%,105%,37.4%,192 nM,114%,87.9%,1.3%,16.6%,–
O=C(/C=C/c1c(Cl)c(O)c(O)c(O)c1Cl)c1c(Cl)cc(Cl)cc1Cl,58.5%,78.7%,0.7%,–,79%,404 nM,13%,–,1.2%,33.3%,–
O=C(/C=C/c1c(Cl)c(O)c(O)c(O)c1Cl)c1c(Cl)cc(F)cc1Cl,47.2%,100%,1.1%,–,83.2%,403 nM,26.3%,–,1.3%,54.1%,–
O=C(O)CCc1c(Cl)c(O)c(O)c(O)c1Cl,80.8%,130%,1%,–,-6.2%,> 5000 nM,89.7%,–,76.4%,20.8%,–
O=C(/C=C/c1cc(O)c(O)c(O)c1Cl)c1ccc(F)cc1,110%,111%,1.1%,106%,72.8%,429 nM,104%,71.4%,1.1%,-4.2%,–
O=C(/C=C/c1c(Cl)c(O)c(O)c(O)c1Cl)c1ccc(F)cc1Cl,122%,118%,1.6%,104%,87.3%,310 nM,52.4%,56.9%,1.1%,16.6%,–
O=C(/C=C/c1c(Cl)c(O)c(O)c(O)c1Cl)c1ccc(-c2ccc(F)cc2)cc1,33.1%,55.5%,0.6%,86.5%,89.4%,1070 nM,11.2%,10.2%,-0.6%,39.5%,–
O=C(/C=C/c1c(Cl)c(O)c(O)c(O)c1Cl)c1cccs1,82.8%,99.1%,-0.9%,–,76.9%,216 nM,112%,–,-1.8%,35.3%,–
O=C(O)[C@H](O)Cc1ccc(O)c(O)c1,–,–,–,–,–,2150 nM,–,–,5.3%,–,> 50000 nM
O=C(/C=C/c1c(Cl)c(O)c(O)c(O)c1Cl)c1ccco1,82.2%,82%,-0.7%,102%,62.4%,95.5 nM,94.7%,70.7%,-1.1%,45.7%,–
Oc1cc(CCCc2ccc(F)cc2)cc(O)c1O,108%,94%,2%,–,-14.6%,2400 nM,93.6%,–,18%,-45.7%,–
O=C(/C=C/c1c(Cl)c(O)c(O)c(O)c1Cl)c1ccc(C(F)(F)F)cc1,36.6%,76.7%,1.5%,101%,70.7%,442 nM,6.9%,43.8%,2%,52%,–
O=C(/C=C/c1c(Cl)c(O)c(O)c(O)c1Cl)c1cccc(-c2ccc(Cl)c(Cl)c2)c1,29.4%,69.1%,–,–,70.7%,> 5000 nM,4.2%,–,79.3%,16.6%,–
O=C(/C=C/c1c(Cl)c(O)c(O)c(O)c1Cl)c1ccc(Cl)cc1Cl,77.2%,81%,0.6%,–,87.3%,306 nM,21.8%,–,0.6%,31.2%,–
O=C(/C=C/c1c(Cl)c(O)c(O)c(O)c1Cl)c1ccc(Cl)c(Cl)c1,50%,79.8%,-0.3%,–,89.4%,415 nM,12.5%,–,-0.8%,58.2%,–
O=C(/C=C/c1c(Cl)c(O)c(O)c(O)c1Cl)c1ccccc1F,84.6%,89%,3.1%,–,87.3%,237 nM,72.8%,–,2.3%,43.7%,–
O=C(O)/C=C/c1c(Cl)c(O)c(O)c(O)c1Br,74%,93.6%,1.8%,–,-6.2%,3460 nM,92.3%,–,30.7%,39.5%,–
O=C(O)/C=C/c1c(Cl)c(O)c(O)c(O)c1Cl,92.4%,93.8%,2.9%,–,-14.6%,840 nM,82.1%,–,3.1%,27%,–
O=C(/C=C/c1c(Cl)c(O)c(O)c(O)c1Cl)c1ccc(Cl)cc1,68.7%,81.2%,0.4%,–,81.1%,630 nM,22.6%,–,0.4%,27%,–
O=C(/C=C/c1c(Cl)c(O)c(O)c(O)c1Cl)c1ccc(Br)cc1,75.7%,101%,-0.3%,–,68.6%,794 nM,12.4%,–,1%,5.2%,–
O=C(/C=C/c1c(Cl)c(O)c(O)c(O)c1Cl)c1ccc(F)cc1F,91.8%,108%,1.1%,–,79%,131 nM,65.8%,–,1.1%,35.3%,–
